Assay results published in patent US20250206730A1 (AUTOTELIC BIO INC., priority 2022, published 2025).

Legend:
ALK5 kinase = biological target: T1, ALK5 kinase (Homo sapiens, UniProt P36897); assay: LanthaScreen Eu Kinase Binding Assay; conditions: Kinase Tracer 178, Eu-anti-GST Antibody, read-out: IC50 Enzyme
T1 sequence (P36897 34-503): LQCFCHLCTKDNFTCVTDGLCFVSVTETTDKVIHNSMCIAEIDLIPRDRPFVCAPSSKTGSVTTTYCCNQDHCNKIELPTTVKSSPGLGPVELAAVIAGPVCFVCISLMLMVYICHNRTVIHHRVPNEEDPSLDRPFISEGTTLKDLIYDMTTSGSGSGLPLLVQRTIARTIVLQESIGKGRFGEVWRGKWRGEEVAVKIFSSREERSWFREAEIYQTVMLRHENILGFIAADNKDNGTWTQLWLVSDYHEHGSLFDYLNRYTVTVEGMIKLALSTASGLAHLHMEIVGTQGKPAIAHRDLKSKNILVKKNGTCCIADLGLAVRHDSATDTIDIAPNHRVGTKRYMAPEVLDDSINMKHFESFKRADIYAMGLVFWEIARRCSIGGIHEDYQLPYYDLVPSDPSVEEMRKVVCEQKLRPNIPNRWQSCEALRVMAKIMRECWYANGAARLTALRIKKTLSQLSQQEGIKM
Procedure: [Example 1] LanthaScreen Eu Kinase Binding Assay
4 μL of 4× Test Compound in 4% DMSO and 4 μL of 4× Kinase in Kinase buffer were added to wells (low volume, white 384-well plate (Greiner Cat. #784207)). The plate was shaken for 30 seconds, centrifuged for 10 seconds at 1000 rpm, and incubated at RT for 30 minutes. Then, 4 μL of 4× Eu-anti-GST Antibody and 4 μL of 4× Kinase Tracer 178 were added to the wells. The plate was shaken for 30 seconds, centrifuged for 10 seconds at 1000 rpm, and incubated at RT for 60 minutes. Fluorescence was measured by a plate reader, Biotek Synergy H1 (Vermont, USA) under the following conditions. • Excitation: 340 nm (3 nm bandpass) • Kinase tracer emission: 665 nm (10 nm bandpass) • Eu Ab emission: 615 nm (10 nm bandpass) • Emission ratio=665 nm (tracer)/615 nm (Eu Ab) • The higher the binding affinity of compound to ALK5 kinase is, the less the emission ratio is.

TGF-β signaling = assay: Assay for evaluating cellular inhibition of TGF-β signaling, 4T1 (SBE-luc2P) luciferase reporter; format: cell-based; conditions: Mus musculus, 4T1, 4T1 (SBE-luc2P) transient pool, 0.2% FBS, 2 h pre-treatment, TGF-β1 2 ng/mL 24 h; read-out: IC50 4T1 Cell
How it was run: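 Luminescence from SMAD-binding-element luciferase was measured after 24 h of 2 ng/mL TGF-β1 at 37 °C, following 2 h compound pre-treatment. HEK293 stable reporter cells were used at 2.5×10^4/well in 0.5% FBS (~80% confluent); the 4T1 SBE-luc2P transient pool at 6×10^3/well in 0.2% FBS (~60% confluent).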

IC50 (ALK5 kinase) [µM]	IC50 (TGF-β signaling) [µM]	Compound
< 0.1	< 0.1	NS(=O)(=O)c1cccc(Nc2cc(Oc3sc(C4CC4)nc3-c3ccccc3)ccn2)c1 [A-116, 3-((4-((2-Cyclopropyl-4-phenylthiazol-5-yl)oxy)pyridin-2-yl)amino)benzenesulfonamide]
< 0.1	> 0.1	COC(=O)c1cccc(Nc2cc(Oc3sc(N)nc3-c3ccccc3)ccn2)c1 [A-3, Methyl 3-((4-((2-amino-4-phenylthiazol-5-yl)oxy)pyridin-2-yl)amino)benzoate]
< 0.1	< 0.1	Cc1cccc(-c2nc(N(C)C)sc2Oc2ccnc(Nc3ccc(C(=O)O)cn3)c2)n1 [A-285, 6-((4-((2-(Dimethylamino)-4-(6-methylpyridin-2-yl)thiazol-5-yl)oxy)pyridin-2-yl)amino)nicotinic acid]
< 0.1	< 0.1	CCc1nc(-c2ccccc2)c(Oc2ccnc(Nc3ccc(C(=O)O)cn3)c2)s1 [A-192, 6-((4-((2-Ethyl-4-phenylthiazol-5-yl)oxy)pyridin-2-yl)amino)nicotinic acid]
< 0.1	< 0.1	CN(C)c1nc(-c2ccccc2)c(Oc2ccnc(Nc3ccc(C(N)=O)cn3)c2)s1 [A-163, 6-((4-((2-(Dimethylamino)-4-phenylthiazol-5-yl)oxy)pyridin-2-yl)amino)nicotinamide]
< 0.1	> 0.1	CNc1nc(-c2ccccc2)c(Oc2ccnc(Nc3cccc(C(C)(C)O)c3)c2)s1 [A-50, 2-(3-((4-((2-(Methylamino)-4-phenylthiazol-5-yl)oxy)pyridin-2-yl)amino)phenyl)propan-2-ol]
< 0.1	< 0.1	NC(=O)c1cccc(Nc2cc(Oc3sc(C4CC4)nc3-c3ccccc3)ccn2)n1 [A-124, 6-((4-((2-Cyclopropyl-4-phenylthiazol-5-yl)oxy)pyridin-2-yl)amino)picolinamide]
< 0.1	> 0.1	CNc1nc(-c2ccccc2)c(Oc2ccnc(Nc3ccc(C(N)=O)cc3)c2)s1 [A-310, 4-((4-((2-(Methylamino)-4-phenylthiazol-5-yl)oxy)pyridin-2-yl)amino)benzamide]
< 0.1	< 0.1	O=C(O)c1cccc(Nc2cc(Oc3sc(C4CC4)nc3-c3ccccc3)ccn2)c1 [A-135, 3-((4-((2-Cyclopropyl-4-phenylthiazol-5-yl)oxy)pyridin-2-yl)amino)benzoic acid]
> 0.1	> 0.1	CN(C)c1nc(-c2ccc3ccccc3c2)c(Oc2ccnc(Nc3cccc(S(N)(=O)=O)c3)c2)s1 [A-235, 3-((4-((2-(Dimethylamino)-4-(naphthalen-2-yl)thiazol-5-yl)oxy)pyridin-2-yl)amino)benzenesulfonamide]
< 0.1	< 0.1	Cc1nc(-c2ccccc2)c(Oc2ccnc(Nc3cccc(CCC#N)c3)c2)s1 [A-113, 3-(3-((4-((2-Methyl-4-phenylthiazol-5-yl)oxy)pyridin-2-yl)amino)phenyl)propanenitrile]
> 0.1	> 0.1	CNC(=O)c1ccc(Nc2cc(Oc3sc(C4CCCCC4)nc3-c3ccccc3)ccn2)nc1 [A-180, 6-((4-((2-Cyclohexyl-4-phenylthiazol-5-yl)oxy)pyridin-2-yl)amino)-N-methylnicotinamide]
< 0.1	> 0.1	Cc1nc(-c2ccccc2)c(Oc2ccnc(Nc3cccc(S(=O)(=O)O)c3)c2)s1 [A-68, 3-((4-((2-Methyl-4-phenylthiazol-5-yl)oxy)pyridin-2-yl)amino)benzenesulfonic acid]
< 0.1	< 0.1	Cc1nc(-c2ccccc2)c(Oc2ccnc(Nc3cccc(C(C)(C)C(=O)O)c3)c2)s1 [A-66, 2-Methyl-2-(3-((4-((2-methyl-4-phenylthiazol-5-yl)oxy)pyridin-2-yl)amino)phenyl)propanoic acid]
< 0.1	> 0.1	Cc1nc(-c2ccccc2)c(Oc2ccnc(Nc3ccc(S(N)(=O)=O)cc3)c2)s1 [A-64, 4-((4-((2-Methyl-4-phenylthiazol-5-yl)oxy)pyridin-2-yl)amino)benzenesulfonamide]
< 0.1	> 0.1	CC(C)(O)c1cccc(Nc2cc(Oc3sc(C4CC4)nc3-c3ccccc3)ccn2)c1 [A-115, 2-(3-((4-((2-Cyclopropyl-4-phenylthiazol-5-yl)oxy)pyridin-2-yl)amino)phenyl)propan-2-ol]

IC50 (ALK5 kinase) [µM]	IC50 (TGF-β signaling) [µM]	Compound
< 0.1	< 0.1	CNC(=O)c1ccc(Nc2cc(Oc3sc(C(F)(F)F)nc3-c3ccccc3)ccn2)cc1 [A-148, N-Methyl-4-((4-((4-phenyl-2-(trifluoromethyl)thiazol-5-yl)oxy)pyridin-2-yl)amino)benzamide]
< 0.1	< 0.1	CCc1nc(-c2cccc(C)n2)c(Oc2ccnc(Nc3cc(C(=O)NC)ccn3)c2)s1 [A-268, 2-((4-((2-Ethyl-4-(6-methylpyridin-2-yl)thiazol-5-yl)oxy)pyridin-2-yl)amino)-N-methylisonicotinamide]
< 0.1	< 0.1	CNC(=O)c1cccc(Nc2cc(Oc3sc(C(C)C)nc3-c3ccccc3)ccn2)n1 [A-225, 6-((4-((2-Isopropyl-4-phenylthiazol-5-yl)oxy)pyridin-2-yl)amino)-N-methylpicolinamide]
> 0.1	> 0.1	Cc1nc(-c2ccccc2)c(Oc2ccnc(Nc3cccc(S(=O)(=O)C(F)(F)F)c3)c2)s1 [A-72, 4-((2-Methyl-4-phenylthiazol-5-yl)oxy)-N-(3-((trifluoromethyl)sulfonyl)phenyl)pyridin-2-amine]
< 0.1	> 0.1	Cc1nc(-c2ccccc2)c(Oc2ccnc(Nc3ccc(C(=O)O)cc3)c2)s1 [A-110, 4-((4-((2-Methyl-4-phenylthiazol-5-yl)oxy)pyridin-2-yl)amino)benzoic acid]
< 0.1	> 0.1	CCc1nc(-c2ccccc2)c(Oc2ccnc(Nc3ccc(C(N)=O)cc3)c2)s1 [A-185, 4-((4-((2-Ethyl-4-phenylthiazol-5-yl)oxy)pyridin-2-yl)amino)benzamide]
< 0.1	< 0.1	O=C(O)c1cccc(Nc2cc(Oc3sc(C4CC4)nc3-c3ccccc3)ccn2)n1 [A-134, 6-((4-((2-Cyclopropyl-4-phenylthiazol-5-yl)oxy)pyridin-2-yl)amino)picolinic acid]
< 0.1	< 0.1	Cc1nc(-c2ccccc2)c(Oc2ccnc(Nc3cccc(S(N)(=O)=O)c3)n2)s1 [A-238, 3-((4-((2-Methyl-4-phenylthiazol-5-yl)oxy)pyrimidin-2-yl)amino)benzenesulfonamide]
< 0.1	> 0.1	CC(C)c1nc(-c2ccccc2)c(Oc2ccnc(Nc3cccc(C(=O)O)c3)c2)s1 [A-230, 3-((4-((2-Isopropyl-4-phenylthiazol-5-yl)oxy)pyridin-2-yl)amino)benzoic acid]
< 0.1	> 0.1	O=C(O)c1ccc(Nc2cc(Oc3sc(C4CCCC4)nc3-c3ccccc3)ccn2)cc1 [A-175, 4-((4-((2-Cyclopentyl-4-phenylthiazol-5-yl)oxy)pyridin-2-yl)amino)benzoic acid]
< 0.1	> 0.1	CNC(=O)c1ccc(Nc2cc(Oc3sc(N(C)C)nc3-c3ccccc3)ccn2)cc1 [A-164, 4-((4-((2-(Dimethylamino)-4-phenylthiazol-5-yl)oxy)pyridin-2-yl)amino)-N-methylbenzamide]
< 0.1	< 0.1	CS(=O)(=O)Nc1ccc(Nc2cc(Oc3sc(C4CC4)nc3-c3ccccc3)ccn2)nc1 [A-127, N-(6-((4-((2-Cyclopropyl-4-phenylthiazol-5-yl)oxy)pyridin-2-yl)amino)pyridin-3-yl)methanesulfonamide]
< 0.1	< 0.1	CS(=O)(=O)Nc1cccc(Nc2cc(Oc3sc(N)nc3-c3ccccc3)ccn2)c1 [A-14, N-(3-((4-((2-Amino-4-phenylthiazol-5-yl)oxy)pyridin-2-yl)amino)phenyl)methanesulfonamide]
< 0.1	> 0.1	COc1nc(-c2ccccc2)c(Oc2ccnc(Nc3cccc(S(N)(=O)=O)c3)c2)s1 [A-142, 3-((4-((2-Methoxy-4-phenylthiazol-5-yl)oxy)pyridin-2-yl)amino)benzenesulfonamide]
< 0.1	< 0.1	CCc1nc(-c2ccccc2)c(Oc2ccnc(Nc3ccc(C(=O)NC)cn3)c2)s1 [A-193, 6-((4-((2-Ethyl-4-phenylthiazol-5-yl)oxy)pyridin-2-yl)amino)-N-methylnicotinamide]
